This is an account of results in patent publication EP0118036A1, “Biologically active ketone derivative, preparation and use” (THE WELLCOME FOUNDATION LIMITED, priority 1983, dated 1984).

For series [1] the following is noted: free base; cited from earlier work.
The nature of series [2]: Storage stability of tablets (Examples 3, 4, 10A, 10B). In kind it is physicochemical. Particulars: summary in words of Table II. The procedure:
In order to compare the storage stability of the tablets of Examples 3 and 4 with similar tablets containing the hydrochloride salt of 2-tert-butylamino-3'-chloropropiophenone, tablets having the following compositions were prepared in an analogous manner to that described in Examples 3 and 4:-
The four sets of tablets (3, 4, 10A and 10B) were tested for stability. Testing was carried out on tablets: • (a) stored at 50°C in closed bottles; and • (b) stored at 37°C in open bottles under a relative humidity of 75%.
The results are summarised in the following Table II in which the data are assay values expressed as percentage of labeled strength of the active salt, and "mo." indicates month: […]

Series [3] in a line: Stability of salts with conventional pharmaceutical carriers or excipients. In kind it is physicochemical. Particulars: tableting excipients, particularly magnesium stearate and stearic acid; result in words. The text has this: It will be appreciated that, in order for the salts to be used in medical therapy, it is necessary to formulate them into pharmaceutical compositions suitable for administration to the patient. The formulation of such compositions entails the admixture or contacting of the salts with various pharmaceutical carriers or excipients. Examples of solid pharmaceutical compositions which are mentioned in British Specification 1,340,032 are tablets, cachets, capsules and suppositories. Of these various types of composition, tablets and capsules are particularly preferred forms as it is generally desired to administer the active compound by the oral route. […] The formulation of the salts of the free base in capsules also presents problems because gelatin, which is commonly used to make the capsule shell, is hydrophilic and therefore creates a humid environment within the capsule, which has a deleterious effect on the 2-tert-butylamino-3'chloropropiophenone salt present in the capsule. It will therefore be appreciated that considerable difficulty arose in finding a salt of 2-tert-butylamino-3'-chloropropiophenone which has sufficient stability when formulated in pharmaceutical compositions.
A further advantage of the maleate salt is that it is much less corrosive than, for example, the hydrochloride salt which tends to corrode apparatus used in its preparation and formulation. […]

Series [4] has as its system tetrabenazine induced sedation. Put plainly: Antagonism of tetrabenazine induced sedation (modified Vernier method). Format: in vivo, Mice. Particulars: for Percent Antagonism of Tetrabenazine Induced Sedation: CD1 male mice, 35 mg/kg tetrabenazine hydrochloride ip. On the procedure: Antagonism of tetrabenazine induced sedation was measured using a modification of the method of Vernier, et al., First Hahnemann Symposium on Psychosomatic Medicine, ed. Nodim and Moyer, pub. Lea and Febiger, Philadelphia, 1962.
Mice, three groups of 12 CD1 males each, were injected intraperitoneally (ip) with a solution of 2-tert-butylamino-3'-chlorogropiophenone hydrochloride (Cpd A) or 2-tert-butylamino-3'-chloropropiophenone maleate (Cpd B) or with saline. Thirty minutes later each of the mice was injected ip with a solution containing 35 mg/kg tetrabenazine hydrochloride. Thirty minutes after the injection of tetrabenazine each mouse was examined for its level of exploratory behavior which was scored on a modification of the arbitrary scale defined by Vernier, et al. The dose of tetrabenazine used was sufficient to cause 90 to 100 percent of the mice to remain motionless even when placed in a new environment. In the test results reported 100 percent would represent total reversal of tetrabenazine effects.
The doses of Cpd B are equivalent to the corresponding doses of Cpd A on a molar basis.

Series [5] deals with Charles River CD1 mice. The series is described as follows: 14-day oral (gavage) toxicity in mice. In kind it is in vivo. Particulars: 260 mg/kg per day for 14 days, gavage in 0.5 percent carboxymethylcellulose, four males and four females. The procedure:
2-Tert-butylamino-3'-chloropropiophenone maleate was administered by gavage in 0.5 percent carboxymethylcellulose to Charles River CD1 mice (four males and four females) at a dose of 260 mg/kg per day for 14 days.

A short description of series [6]: Comparative bulk storage stability of salts of 2-tert-butylamino-3'-chloropropiophenone. In kind it is physicochemical. Particulars: bulk salt, result in words. From the text:
The propiophenone moiety breaks down into hydroxyketones, a diketone and meta-chlorobenzoic acid. It is of course an important desideratum for : a pharmaceutical product that it should have a reasonably good bulk stability in order to avoid or reduce wastage resulting from decomposition of the active moiety during the period between its synthesis and its use in formulating the final dosage form.
Small amounts of various salts of 2-tert-butylamino-3'-chloropropiophenone were each placed in a clean borosilicate glass vial which was sealed with a Teflon-faced rubber closure. The samples were then placed in an oven maintained at 70°C (except for the formate which was stored at 75°C) and visual comparisons were made over a period of 1-3 days. The observations are recorded in the following Table I: […]

SMILES strings stand for the structures. Where a name gives a salt, the structure may show the parent alone.

As for `CC(NC(C)(C)C)C(=O)c1cccc(Cl)c1` (stereo not drawn) [2-tert-butylamino-3'-chloropropiophenone], in series [1], the pKa is 8.5-9.
`CC(NC(C)(C)C)C(=O)c1cccc(F)c1` (stereo not drawn) [3'-fluoro analogue]: the pKa in series [1] is 8.5-9.
For the compound `CC(NC(C)(C)C)C(=O)c1cccc(Cl)c1` (stereo not drawn) [Cpd A, 2-tert-butylamino-3'-chlorogropiophenone hydrochloride], the “stability in the formulated tablets” value in series [2] is “limited stability”. The “stability in association with conventional pharmaceutical carriers and excipients” value in series [3] is “limited stability”. In addition, the entries for the “Percent Antagonism of Tetrabenazine Induced Sedation” value in series [4] (dose 12.5 mg/kg (ip)), in series [4] (dose 25 mg/kg (ip)) and in series [4] (dose 50 mg/kg (ip)) were 17.5%, 50% and 62.5%, respectively.
On to `CC(NC(C)(C)C)C(=O)c1cccc(Cl)c1.O=C(O)/C=C\C(=O)O` (stereo not drawn) [Cpd B, 2-tert-butylamino-3'-chloropropiophenone maleate], for which the survival result in series [5] was “All of the mice survived”. Moreover, in series [2], the “stability in the formulated tablets” value is “relatively stable”. Moreover, the “stability in association with conventional pharmaceutical carriers and excipients” value in series [3] is listed as “advantageous stability characteristics”. Moreover, the “Percent Antagonism of Tetrabenazine Induced Sedation” value in series [4] (dose 16.1 mg/kg (ip)) turned out to be 27.5%; in series [4] (dose 32.2 mg/kg (ip)), 62.5%; in series [4] (dose 64.4 mg/kg (ip)), 60%. In addition, the “antidepressant activity in the tetrabenazine-induced sedation test” value in series [4] (rodents, result in words) is given as “good antidepressant activity”.
For `CC(NC(C)(C)C)C(=O)c1cccc(Cl)c1` (stereo not drawn) [napthalenesulphonate monohydrate], in series [6], the stability upon storage result was “unstable upon storage”.
